In US20060235084A1, “PEG-polyacetal diblock and triblock copolymers and pharmaceutical compositions” (priority 2005, published 2006):

Test: In vitro release of paclitaxel from triblock copolymer gel into PBS release media
Type: physicochemical
Details: 23% by weight aqueous triblock copolymer of Example 1, paclitaxel approx. 2.0 mg/ml; PBS pH 7.4 with 2.4% Tween-80 and 4% Cremophor EL, 37° C.; HPLC
Protocol: To a 23% by weight aqueous solution of the triblock copolymer of Example 1 is added sufficient paclitaxel to provide approximately 2.0 mg/ml of drug. A 2 ml sample of this solution is put onto a watchglass and equilibrated at 37° C. Since the temperature is greater than the gelation temperature of the copolymer, a gel formed on the watchglass. The watchglass is placed in a 200 ml beaker containing release media comprised of 150 ml of PBS (pH 7.4) containing 2.4% by weight Tween-80 and 4% by weight Cremophor EL equilibrated at 37° C. The solution in the beaker was stirred, and the top of the beaker is sealed to prevent evaporation. The whole assembly was placed into an incubator at 37° C. The release study is performed in triplicate. At different time periods a 5 ml aliquot of the release media was taken and analyzed for […]. The PBS solution was replaced with fresh PBS after each aliquot removal. Samples were collected at 1, 2, 4, 8, 18, and 24 hours, and thereafter at 24 hour intervals, and analyzed by HPLC. The release profile of […] from the gel is determined. The gel formulation provides excellent control over the release of the paclitaxel for approximately 50 days.

## CC(=O)O[C@H]1C(=O)[C@@]2(C)[C@H]([C@H](OC(=O)c3ccccc3)[C@]3(O)C[C@H](OC(=O)[C@H](O)[C@@H](NC(=O)c4ccccc4)c4ccccc4)C(C)=C1C3(C)C)[C@]1(OC(C)=O)CO[C@@H]1C[C@@H]2O [paclitaxel]
  duration of controlled release from the gel formulation: approximately 50 days
